Experiments:
[1] = daily release or elution of Bimatoprost in vitro versus time (FIG. 8); format: physicochemical; conditions: four-hundred-day study
[2] = Bimatoprost sampled in the aqueous humor of dogs over time (FIG. 9); format: in vivo
Source text: In this example, there was a low dose group of dogs (Grp 1), a mid-dose group of dogs (Grp 2), a high dose group of dogs (Grp 3), and a placebo group of dogs (Grp 4).

CCNC(=O)CCC/C=C\C[C@@H]1[C@@H](/C=C/[C@@H](O)CCc2ccccc2)[C@H](O)C[C@@H]1O [Bimatoprost]
release kinetics over the study [1]: essentially a zero-order and/or a steady state elution rate | average release rate ([1]; drug delivery component): less than 0.100 micrograms per day | level of Bimatoprost in the aqueous humor, elution kinetics ([2]; low dose (Grp 1), mid-dose (Grp 2) and high dose (Grp 3) groups, study period of about one hundred thirteen days): zero-order elution rate | mean measurements of Bimatoprost in the aqueous humor, dose dependence ([2]; low, mid and high dose groups): increased with the higher doses
